In the experiment the target is human HPK1 (MAP4K1) (Homo sapiens (Human), UniProt Q92918). Kind of experiment: HPK1 IC50 Assay (TR-FRET peptide phosphorylation). The format is biochemical. To be noted: recombinant HPK1 kinase domain 0.15 nM, 10 μM ATP, 1 μM STK S1 peptide; geometric mean of multiple experiments. The method in brief: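 Pre-activated, dually phosphorylated baculovirus-expressed HPK1 kinase domain (0.15 nM) preincubated 15 min with compound, then reacted 3 h at 25° C with 10 μM ATP and 1 μM STK S1 peptide in BES pH 7.0 buffer. Phosphopeptide read by TR-FRET (665/620 nm); four-parameter fit, geometric-mean IC50.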
human HPK1 (MAP4K1), sequence (Q92918 17-274): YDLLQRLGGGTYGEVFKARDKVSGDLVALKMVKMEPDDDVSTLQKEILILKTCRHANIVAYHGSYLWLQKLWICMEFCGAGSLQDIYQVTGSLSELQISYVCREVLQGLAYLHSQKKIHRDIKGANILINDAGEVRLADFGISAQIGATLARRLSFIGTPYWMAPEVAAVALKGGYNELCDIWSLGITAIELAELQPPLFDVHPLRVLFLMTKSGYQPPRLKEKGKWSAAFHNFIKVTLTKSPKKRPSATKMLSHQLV
On the technique in general: In TR-FRET formats the signal depends on donor and acceptor labels being close together.
For the compound `CNC(=O)c1ccc(F)c(Nc2nc(-c3ccc4c(c3)N([C@H]3C[C@@H](N5CCCCC5)C3)C(=O)C43CCN(C(C)=O)CC3)cc3ncn(C4CC4)c23)c1` [Example 97], the half-inhibitory concentration (IC50) (usually the concentration at which inhibition is half-maximal) is 0.4 nM.
Turning to `CNC(=O)c1cc(Nc2nc(-c3ccc4c(c3)N([C@H]3C[C@@H](N5CCCCC5)C3)C(=O)C43CCN(C(=O)C(C)(C)C)CC3)cc3ncn(C4CC4)c23)ccc1C` [Example 98], the concentration for half-maximal inhibition (IC50) turned out to be 0.09 nM.
As to `Cc1cc(F)c(Nc2nc(-c3ccc4c(c3)N([C@H]3C[C@@H](N5CCCCC5)C3)C(=O)C43CCN(C4COC4)CC3)cc3ncn(C(C)C)c23)cc1C(=O)NC(C)C` [Example 99], the concentration for half-maximal inhibition (IC50) was found to be 0.2 nM.
`Cc1cc(F)c(Nc2nc(-c3ccc4c(c3)N([C@H]3C[C@@H](N5CCC(C)(C)C5)C3)C(=O)C43CCN(C4COC4)CC3)cc3ncn(C(C)C)c23)cc1C(=O)NC(C)C` [Example 100]: the 50% inhibitory concentration (IC50) was determined as 0.3 nM.
As for `CCn1cnc2cc(-c3ccc4c(c3)N([C@H]3C[C@@H](N5CCCCC5)C3)C(=O)C4(C)C)nc(Nc3cc(C(=O)NC)c(C)cc3F)c21` [Example 101], the IC50 was found to be 0.2 nM.
`CCn1cnc2cc(-c3ccc4c(c3)N([C@H]3C[C@@H](N5CCCCC5)C3)C(=O)C4(C)C)nc(Nc3ccc(C)c(C(=O)NC)c3)c21` [Example 102]: the 50% inhibitory concentration (IC50) was 0.09 nM.
Regarding `CNC(=O)c1cc(Nc2nc(-c3ccc4c(c3)N([C@H]3C[C@@H](N5CCCC5)C3)C(=O)C4(C)C)cc3ncn(C(C)C)c23)ccc1C` [Example 103], the IC50 stood at 0.1 nM.
Next, `CNC(=O)c1cc(Nc2nc(-c3ccc4c(c3)N([C@H]3C[C@@H](N5CCC(C(F)F)C5)C3)C(=O)C4(C)C)cc3ncn(C(C)C)c23)ccc1C` (some centres unmarked) [Example 104, 5-((6-(1-((1s,3s)-3-(3-(difluoromethyl)pyrrolidin-1-yl)cyclobutyl)-3,3-dimethyl-2-oxoindolin-6-yl)-3-isopropyl-3H-imidazo[4,5-c]pyridin-4-yl)amino)-N,2-dimethylbenzamide]: 0.2 nM.
Regarding `CNC(=O)c1cc(Nc2nc(-c3ccc4c(c3)N(C3CC(N5CC[C@H](C(F)F)C5)C3)C(=O)C4(C)C)cc3ncn(C(C)C)c23)ccc1C` (some centres unmarked) [Example 104A, 5-((6-(1-((1s,3s)-3-(3-(difluoromethyl)pyrrolidin-1-yl)cyclobutyl)-3,3-dimethyl-2-oxoindolin-6-yl)-3-isopropyl-3H-imidazo[4,5-c]pyridin-4-yl)amino)-N,2-dimethylbenzamide], the concentration for half-maximal inhibition (IC50) was 0.2 nM.
Next, `CNC(=O)c1cc(Nc2nc(-c3ccc4c(c3)N([C@H]3C[C@@H](N5CCCC(C(F)F)C5)C3)C(=O)C4(C)C)cc3ncn(C(C)C)c23)ccc1C` (some centres unmarked) [Example 105, 5-((6-(1-((1s,3s)-3-(3-(difluoromethyl)piperidin-1-yl)cyclobutyl)-3,3-dimethyl-2-oxoindolin-6-yl)-3-isopropyl-3H-imidazo[4,5-c]pyridin-4-yl)amino)-N,2-dimethylbenzamide]: 0.2 nM; `CNC(=O)c1cc(Nc2nc(-c3ccc4c(c3)N(C3CC(N5CCC[C@H](C(F)F)C5)C3)C(=O)C4(C)C)cc3ncn(C(C)C)c23)ccc1C` (some centres unmarked) [Example 105A, 5-((6-(1-((1s,3s)-3-(3-(difluoromethyl)piperidin-1-yl)cyclobutyl)-3,3-dimethyl-2-oxoindolin-6-yl)-3-isopropyl-3H-imidazo[4,5-c]pyridin-4-yl)amino)-N,2-dimethylbenzamide]: 0.2 nM; `CNC(=O)c1cc(Nc2nc(-c3ccc4c(c3)N(C3CC(N5CCC[C@H](C(F)F)C5)C3)C(=O)C4(C)C)cc3ncn(C(C)C)c23)ccc1C` (some centres unmarked) [Example 105B, 5-((6-(1-((1s,3s)-3-(3-(difluoromethyl)piperidin-1-yl)cyclobutyl)-3,3-dimethyl-2-oxoindolin-6-yl)-3-isopropyl-3H-imidazo[4,5-c]pyridin-4-yl)amino)-N,2-dimethylbenzamide]: 0.09 nM.
As to `CNC(=O)c1cc(Nc2nc(-c3ccc4c(c3)N([C@H]3C[C@@H](N5CCC[C@@H](F)C5)C3)C(=O)C4(C)C)cc3ncn(C(C)C)c23)ccc1C` [Example 106], the IC50 is 0.07 nM.
Take `CNC(=O)c1cc(Nc2nc(-c3ccc4c(c3)N([C@H]3C[C@@H](N5CCC[C@@H](F)C5)C3)C(=O)C4(C)C)cc3ncn(C(C)C)c23)c(F)cc1C` [Example 107]: the IC50 stood at 0.1 nM.
As for `CNC(=O)c1cc(Nc2nc(-c3ccc4c(c3)N([C@H]3C[C@@H](N5CC[C@@H](F)C5)C3)C(=O)C4(C)C)cc3ncn(C(C)C)c23)c(F)cc1C` [Example 108], the IC50 was determined as 0.1 nM.
As for `CC[C@H](C)n1cnc2cc(-c3ccc4c(c3)N([C@H]3C[C@@H](N5CC[C@@H](F)C5)C3)C(=O)C4(C)C)nc(Nc3cc(C(=O)NC)c(C)cc3F)c21` [Example 109], the IC50 amounted to 0.3 nM.
As for `Cc1cc(F)c(Nc2nc(-c3ccc4c(c3)N([C@H]3C[C@@H](N5CCC[C@@H](F)C5)C3)C(=O)C4(C)C)cc3ncn(C(C)C)c23)cc1C(=O)NC(C)C` [Example 110], the IC50 amounted to 0.2 nM.
Regarding `CNC(=O)c1cc(Nc2nc(-c3cnc4c(c3)N([C@H]3C[C@@H](N5CCCCC5)C3)C(=O)C4(C)C)cc3ncn(C(C)C)c23)c(F)cc1C` [Example 111], the concentration for half-maximal inhibition (IC50) was 0.3 nM.
Take `Cc1ccc(Nc2nc(-c3ccc4c(c3)N([C@H]3C[C@@H](N5CCCCC5)C3)C(=O)C4(C)C)cc3ncn(C4CC4)c23)cc1C(N)=O` [Example 112]: the IC50 turned out to be 0.09 nM.
As to `CC[C@H](C)n1cnc2cc(-c3ccc4c(c3)N([C@H]3C[C@@H](N5CCC[C@@H](F)C5)C3)C(=O)C4(C)C)nc(Nc3cc(C(=O)NC)c(C)cc3F)c21` [Example 113], the IC50 turned out to be 0.1 nM.
The same measure for `CC[C@H](C)n1cnc2cc(-c3ccc4c(c3)N([C@H]3C[C@@H](N5CCCCC5)C3)C(=O)C4(C)C)nc(Nc3ccc(Cl)c(C(=O)NC)c3)c21` [Example 114]: 0.05 nM; for `CC(C)NC(=O)c1cc(Nc2nc(-c3ccc4c(c3)N([C@H]3C[C@@H](N5CCCCC5)C3)C(=O)C4(C)C)cc3ncn(C(C)C)c23)ccc1Cl` [Example 115]: 0.1 nM.
The same measure for `COCCNC(=O)c1cc(Nc2nc(-c3ccc4c(c3)N([C@H]3C[C@@H](N5CCCCC5)C3)C(=O)C4(C)C)cc3ncn(C(C)C)c23)c(F)cc1C` [Example 116]: 0.2 nM; for `CC(C)NC(=O)c1cc(Nc2nc(-c3ccc4c(c3)N([C@H]3C[C@@H](N5CCCCC5)C3)C(=O)C4(C)C)cc3ncn(C(C)C)c23)c(F)cc1Cl` [Example 117]: 0.2 nM.
As for `CNC(=O)c1cc(Nc2nc(-c3ccc4c(c3)N([C@H]3C[C@@H](N5CCCCC5)C3)C(=O)C4(C)C)cc3ncn(C(C)C)c23)c(F)cc1Cl` [Example 118], the half-maximal inhibitory concentration (IC50) was determined as 0.09 nM.
`CNC(=O)c1cc(Nc2nc(-c3ccc4c(c3)N([C@H]3C[C@@H](N5CCCCC5)C3)C(=O)C4(C)C)cc3ncn(C(C)C)c23)ccc1Cl` [Example 119]: the IC50 came out at 0.07 nM.
As for `CNC(=O)c1cc(Nc2nc(-c3ccc4c(c3)N([C@H]3C[C@@H](N5CC(C)(C)C5)C3)C(=O)C4(C)C)cc3ncn(C(C)C)c23)c(F)cc1C` [Example 120], the IC50 came out at 0.2 nM.
Take `Cc1ccc(Nc2nc(-c3ccc4c(c3)N([C@H]3C[C@@H](N5CC(C)(C)C5)C3)C(=O)C4(C)C)cc3ncn(C(C)C)c23)cc1C(=O)NC1CC1` [Example 121]: the 50% inhibitory concentration (IC50) is 0.1 nM.
On to `CNC(=O)c1cc(Nc2nc(-c3ccc4c(c3)N([C@H]3C[C@@H](N5CC(C)(C)C5)C3)C(=O)C4(C)C)cc3ncn(C(C)C)c23)ccc1C` [Example 122], for which the IC50 was found to be 0.1 nM.

The record behind these values is patent US11203591B2, “Substituted 6-azabenzimidazole compounds” (Gilead Sciences, Inc., priority 2018, dated 2021).
